Data: patent US8778871B2 (Takeda Pharmaceutical Company Limited, priority 2004, dated 2014)
Non-standard residues stand in square brackets, D forms with d. Residues, ends and D or L forms follow the SMILES beside them. No end group written: not given here. Phe(3-Cl) = N[C@@H](Cc1cccc(Cl)c1)C(=O)O; Phe(4-Cl) = N[C@@H](Cc1ccc(Cl)cc1)C(=O)O; 1Nal = N[C@@H](Cc1cccc2ccccc12)C(=O)O; 2Nal = N[C@@H](Cc1ccc2ccccc2c1)C(=O)O; Arg(Me) = CNC(=N)NCCC[C@H](N)C(=O)O; Cha = N[C@@H](CC1CCCCC1)C(=O)O; azaGly = NNC(=O)O

Biological target: T1, hOT7T175 (Homo sapiens, UniProt Q969F8, L364H)
T1 construct: expressed in transfected cells
T1 sequence (Q969F8 whole entry L364H): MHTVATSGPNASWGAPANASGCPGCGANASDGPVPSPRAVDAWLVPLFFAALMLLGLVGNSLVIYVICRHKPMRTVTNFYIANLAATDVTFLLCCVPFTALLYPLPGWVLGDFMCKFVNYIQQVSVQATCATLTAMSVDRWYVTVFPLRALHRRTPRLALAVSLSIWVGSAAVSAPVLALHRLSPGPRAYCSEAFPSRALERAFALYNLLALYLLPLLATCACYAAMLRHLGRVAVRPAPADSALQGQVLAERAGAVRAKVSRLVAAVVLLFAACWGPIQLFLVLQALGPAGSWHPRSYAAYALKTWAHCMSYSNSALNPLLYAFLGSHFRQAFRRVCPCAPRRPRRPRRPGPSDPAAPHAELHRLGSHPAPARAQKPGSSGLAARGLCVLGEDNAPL
Test: Intracellular Ca ion level-increasing activity using FLIPR (180 seconds; specific activity to Metastin (1-54))
Format: cell-based
Details: hOT7T175/CHO, relative to Metastin (1-54) = 1

| Compound | Specific Act. (intracellular Ca ion level-increasing activity, specific activity to Metastin (1-54)) |
| --- | --- |
| CNC(=N)NCCC[C@H](NC(=O)[C@H](CC(C)C)NC(=O)CNC(=O)[C@H](Cc1ccccc1)NC(=O)[C@H](CO)NC(=O)[C@H](CC(N)=O)NC(=O)[C@@H](Cc1c[nH]c2ccccc12)NC(=O)[C@H](CC(N)=O)NC(=O)[C@@H](N)Cc1ccc(O)cc1)C(=O)N[C@@H](Cc1ccccc1)C(N)=O [Compound No. 143, Tyr-Asn-D-Trp-Asn-Ser-Phe-Gly-Leu-Arg(Me)-Phe-NH2] | 3 |
| CNC(=N)NCCC[C@H](NC(=O)[C@H](CC(C)C)NC(=O)NNC(=O)[C@H](Cc1ccccc1)NC(=O)[C@H](CO)NC(=O)[C@H](CC(N)=O)NC(=O)[C@H](Cc1cccc(Cl)c1)NC(=O)[C@H](CC(N)=O)NC(=O)[C@H](N)Cc1ccc(O)cc1)C(=O)N[C@@H](Cc1ccccc1)C(N)=O [Compound No. 248, D-Tyr-Asn-Phe(3Cl)-Asn-Ser-Phe-AzaGly-Leu-Arg(Me)-Phe-NH2] (H-[dY]N[Phe(3-Cl)]NSF[azaGly]L[Arg(Me)]F-NH2) | 2 |
| CNC(=N)NCCC[C@H](NC(=O)[C@H](CC(C)C)NC(=O)CNC(=O)[C@H](Cc1ccccc1)NC(=O)[C@H](CO)NC(=O)[C@H](CC(N)=O)NC(=O)[C@H](Cc1c[nH]c2ccccc12)NC(=O)[C@H](N)CC(N)=O)C(=O)N[C@@H](Cc1ccccc1)C(N)=O [Compound No. 216] (H-[dN]WNSFGL[Arg(Me)]F-NH2) | 1 |
| CNC(=N)NCCC[C@H](NC(=O)[C@H](CC(C)C)NC(=O)NNC(=O)[C@H](Cc1ccccc1)NC(=O)[C@H](CO)NC(=O)[C@H](CC(N)=O)NC(=O)[C@H](C)NC(=O)[C@H](CC(N)=O)NC(=O)[C@H](N)Cc1ccc(O)cc1)C(=O)N[C@@H](Cc1ccccc1)C(N)=O [Compound No. 235, D-Tyr-Asn-Ala-Asn-Ser-Phe-AzaGly-Leu-Arg(Me)-Phe-NH2] (H-[dY]NANSF[azaGly]L[Arg(Me)]F-NH2) | 1 |
| H-YNWNSFSLRF-NH2 [Compound No. 101] | 10 |
| CC(C)C[C@H](NC(=O)CNC(=O)[C@H](Cc1cccc2ccccc12)NC(=O)[C@H](CO)NC(=O)[C@H](CC(N)=O)NC(=O)[C@H](Cc1c[nH]c2ccccc12)NC(=O)[C@H](CC(N)=O)NC(=O)[C@@H](N)Cc1ccc(O)cc1)C(=O)N[C@@H](CCCNC(=N)N)C(=O)N[C@@H](Cc1ccccc1)C(N)=O [Compound No. 151, Tyr-Asn-Trp-Asn-Ser-Nal(1)-Gly-Leu-Arg-Phe-NH2] (H-YNWNS[1Nal]GLRF-NH2) | 1 |
| CNC(=N)NCCC[C@H](NC(=O)[C@H](CC(C)C)NC(=O)NNC(=O)[C@H](Cc1ccccc1)NC(=O)[C@H](CO)NC(=O)[C@H](CC(N)=O)NC(=O)[C@@H](NC(=O)[C@H](CC(N)=O)NC(=O)[C@H](N)Cc1ccc(O)cc1)C(C)C)C(=O)N[C@@H](Cc1ccccc1)C(N)=O [Compound No. 234, D-Tyr-Asn-Val-Asn-Ser-Phe-AzaGly-Leu-Arg(Me)-Phe-NH2] (H-[dY]NVNSF[azaGly]L[Arg(Me)]F-NH2) | 1 |
| CNC(=N)NCCC[C@H](NC(=O)[C@@H](NC(=O)CNC(=O)[C@H](Cc1ccccc1)NC(=O)[C@H](CO)NC(=O)[C@H](CC(N)=O)NC(=O)[C@H](Cc1c[nH]c2ccccc12)NC(=O)[C@H](CC(N)=O)NC(=O)[C@H](N)Cc1ccc(O)cc1)C(C)C)C(=O)N[C@@H](Cc1ccccc1)C(N)=O [Compound No. 213] (H-[dY]NWNSFGV[Arg(Me)]F-NH2) | 2 |
| CNC(=N)NCCC[C@H](NC(=O)[C@H](CC(C)C)NC(=O)CNC(=O)[C@H](CC1CCCCC1)NC(=O)[C@H](CO)NC(=O)[C@H](CC(N)=O)NC(=O)[C@H](CC1CCCCC1)NC(=O)[C@H](CC(N)=O)NC(=O)[C@H](N)Cc1ccc(O)cc1)C(=O)N[C@@H](Cc1c[nH]c2ccccc12)C(N)=O [Compound No. 182, D-Tyr-Asn-Cha-Asn-Ser-Cha-Gly-Leu-Arg(Me)-Trp-NH2] (H-[dY]N[Cha]NS[Cha]GL[Arg(Me)]W-NH2) | 5 |
| CC(C)C[C@H](NC(=O)CNC(=O)[C@H](Cc1ccccc1)NC(=O)[C@H](CO)NC(=O)[C@H](CC(N)=O)NC(=O)[C@H](Cc1c[nH]c2ccccc12)NC(=O)[C@H](CC(N)=O)NC(=O)[C@@H](N)Cc1ccc(O)cc1)C(=O)N[C@@H](CCCNC(=N)N)C(=O)N[C@@H](Cc1ccc(Cl)cc1)C(N)=O [Compound No. 130] | 10 |
| CC[C@H](C)[C@H](NC(=O)[C@H](CC(N)=O)NC(=O)[C@H](N)Cc1ccc(O)cc1)C(=O)N[C@@H](CC(N)=O)C(=O)N[C@@H](CO)C(=O)N[C@@H](Cc1ccccc1)C(=O)NNC(=O)N[C@@H](CC(C)C)C(=O)N[C@@H](CCCNC(=N)NC)C(=O)N[C@@H](Cc1ccccc1)C(N)=O [Compound No. 233, D-Tyr-Asn-Ile-Asn-Ser-Phe-AzaGly-Leu-Arg(Me)-Phe-NH2] (H-[dY]NINSF[azaGly]L[Arg(Me)]F-NH2) | 1 |
| H-YNWNLFGLRF-NH2 [Compound No. 24] | 1 |
| CNC(=N)NCCC[C@H](NC(=O)[C@H](CC(C)C)NC(=O)NNC(=O)[C@H](Cc1ccccc1)NC(=O)[C@H](CO)NC(=O)[C@H](CC(N)=O)NC(=O)[C@H](Cc1ccc2ccccc2c1)NC(=O)[C@H](N)Cc1ccc(O)cc1)C(=O)N[C@@H](Cc1ccccc1)C(N)=O [Compound No. 255, D-Tyr-Nal(2)-Asn-Ser-Phe-AzaGly-Leu-Arg(Me)-Phe-NH2] (H-[dY][2Nal]NSF[azaGly]L[Arg(Me)]F-NH2) | 1 |
| CNC(=N)NCCC[C@H](NC(=O)[C@H](CC(C)C)NC(=O)CNC(=O)[C@H](Cc1ccccc1)NC(=O)[C@H](CO)NC(=O)[C@H](CC(N)=O)NC(=O)[C@H](CC1CCCCC1)NC(=O)[C@H](CC(N)=O)NC(=O)[C@H](N)Cc1ccc(O)cc1)C(=O)N[C@@H](Cc1ccccc1)C(N)=O [Compound No. 171, D-Tyr-Asn-Cha-Asn-Ser-Phe-Gly-Leu-Arg(Me)-Phe-NH2] (H-[dY]N[Cha]NSFGL[Arg(Me)]F-NH2) | 10 |
| CC[C@H](C)[C@H](NC(=O)[C@H](N)Cc1ccc(O)cc1)C(=O)N[C@@H](CC(N)=O)C(=O)N[C@@H](CO)C(=O)N[C@@H](Cc1ccccc1)C(=O)NCC(=O)N[C@@H](CC(C)C)C(=O)N[C@@H](CCCNC(=N)NC)C(=O)N[C@@H](Cc1ccccc1)C(N)=O [Compound No. 228] (H-[dY]INSFGL[Arg(Me)]F-NH2) | 5 |
| CNC(=N)NCCC[C@H](NC(=O)[C@H](CC(C)C)NC(=O)CNC(=O)[C@H](Cc1ccccc1)NC(=O)[C@H](CO)NC(=O)[C@H](CC(N)=O)NC(=O)[C@H](Cc1c[nH]c2ccccc12)NC(=O)[C@@H](NC(=O)[C@H](N)Cc1ccc(O)cc1)[C@@H](C)O)C(=O)N[C@@H](Cc1ccccc1)C(N)=O [Compound No. 215] (H-[dY]TWNSFGL[Arg(Me)]F-NH2) | 10 |
| CNC(=N)NCCC[C@H](NC(=O)[C@H](CC(C)C)NC(=O)CNC(=O)[C@H](Cc1ccccc1)NC(=O)[C@H](CO)NC(=O)[C@H](CC(N)=O)NC(=O)[C@H](CO)NC(=O)[C@H](N)Cc1ccc(O)cc1)C(=O)N[C@@H](Cc1ccccc1)C(N)=O [Compound No. 226] (H-[dY]SNSFGL[Arg(Me)]F-NH2) | 1 |
| CC(C)C[C@H](NC(=O)CNC(=O)[C@H](Cc1ccccc1)NC(=O)[C@H](CO)NC(=O)[C@H](CC(N)=O)NC(=O)[C@H](Cc1c[nH]c2ccccc12)NC(=O)[C@H](CC(N)=O)NC(=O)[C@@H](N)Cc1ccc(O)cc1)C(=O)N[C@@H](CCCNC(=N)N)C(=O)N[C@@H](Cc1ccccc1F)C(N)=O [Compound No. 19] | 2 |
| CNC(=N)NCCC[C@H](NC(=O)[C@H](CC(C)C)NC(=O)NNC(=O)[C@H](Cc1ccccc1)NC(=O)[C@H](CO)NC(=O)[C@H](CC(N)=O)NC(=O)[C@H](Cc1ccc(Cl)cc1)NC(=O)[C@H](CC(N)=O)NC(=O)[C@H](N)Cc1ccc(O)cc1)C(=O)N[C@@H](Cc1ccccc1)C(N)=O [Compound No. 249, D-Tyr-Asn-Phe(4Cl)-Asn-Ser-Phe-AzaGly-Leu-Arg(Me)-Phe-NH2] (H-[dY]N[Phe(4-Cl)]NSF[azaGly]L[Arg(Me)]F-NH2) | 1 |
| D-Tyr-Asn-Trp-Ser-Ser-Phe-Gly-Leu-Arg(Me)-Phe-NH2 ([dY]NWSSFGL[Arg(Me)]F-NH2) [Compound No. 207] | ½ |
| CNC(=N)NCCC[C@H](NC(=O)[C@H](CC(C)C)NC(=O)NNC(=O)[C@H](Cc1ccccc1)NC(=O)[C@H](CO)NC(=O)[C@H](CC(N)=O)NC(=O)[C@@H](Cc1c[nH]c2ccccc12)NC(=O)[C@H](CC(N)=O)NC(=O)[C@H](N)Cc1ccc(O)cc1)C(=O)N[C@@H](Cc1ccccc1)C(N)=O [Compound No. 236, D-Tyr-Asn-D-Trp-Asn-Ser-Phe-AzaGly-Leu-Arg(Me)-Phe-NH2] | 2 |
| CNC(=N)NCCC[C@H](NC(=O)[C@H](CC(C)C)NC(=O)NNC(=O)[C@H](Cc1ccccc1)NC(=O)[C@H](CO)NC(=O)[C@H](CC(N)=O)NC(=O)[C@H](Cc1ccccc1)NC(=O)[C@H](N)Cc1ccc(O)cc1)C(=O)N[C@@H](Cc1ccccc1)C(N)=O [Compound No. 254, D-Tyr-Phe-Asn-Ser-Phe-AzaGly-Leu-Arg(Me)-Phe-NH2] (H-[dY]FNSF[azaGly]L[Arg(Me)]F-NH2) | 1 |
| CC(C)C[C@H](NC(=O)CNC(=O)[C@H](Cc1ccccc1)NC(=O)[C@H](CO)NC(=O)[C@H](CC(N)=O)NC(=O)[C@H](Cc1c[nH]c2ccccc12)NC(=O)[C@H](CC(N)=O)NC(=O)[C@@H](N)Cc1ccc(O)cc1)C(=O)N[C@@H](CCCNC(=N)N)C(=O)N[C@@H](Cc1ccc(N)cc1)C(N)=O [Compound No. 131] | 3 |
